# Experiments:
# [1] = test system: Mouse melanocytes (Mel-Ab cells); experiment: Melanin production inhibitory effect using mouse melanocytes (Dooley method); assay type: cell-based; details: 10 ppm of test substance for 3 days, absorbance at 400 nm
# human skin = experiment: Whitening effect on human skin after UVB-induced blackness; assay type: in vivo; details: 10 weeks, colorimeter
# Excerpt: An opaque tape having a perforated hole of a 1.5 cm-diameter was attached to the upper arm of each of 12 healthy men. Then, UV rays (UVB) were irradiated to each of the subjects at a dose 1.5-2 times higher than the minimal erythema dose, thus inducing skin's blackness.
# After the UV irradiation, a 1 wt % solution of each of the test samples (1,3-butyleneglycol: ethanol=7:3, as a vehicle) was applied to the skin of each subject. As negative and positive control groups, a 3 wt % solution of each of […] was applied to the skin of each subject. […] The skin color was measured with a colorimeter (Minolta, Japan) at a 1-week interval. Then, the difference (ΔL*) in skin color between the time point of application and the time point of completion of application of each sample was calculated according to the following equation 2, and the calculation results are shown in Table 2 below. Meanwhile, the whitening effect of each sample was evaluated by comparing ΔL* between the site applied with each sample and the control site.
# [2] = 1 wt % solution in 1,3-butyleneglycol:ethanol=7:3 applied to UVB-irradiated upper arm of 12 healthy men
Compound,Melanin production inhibitory rate (%) [1] [%],Lightless (ΔL*) of skin color (human skin; [2]),"inhibition at 10 ppm ([1]; Mus musculus, 72 h, read-out: Melanin production inhibitory rate (%)) [%]",Lightless (ΔL*) of skin color (human skin; 3 wt % solution (positive control) applied to UVB-irradiated upper arm of 12 healthy men)
20-O-β-D-glucopyranosyl-20(S)-protopanaxatriol [Example 3],34.2,1.71 ± 0.13,,
20-O-β-D-glucopyranosyl-20(S)-protopanaxatriol [Example 1],35.1,1.60 ± 0.13,,
20-O-β-D-glucopyranosyl-20(S)-protopanaxatriol [ginsenoside F1],,higher than 1.6,,
"O=c1cc(CO)occ1O [Kojic acid, reference compound]",,,30.5,1.56 ± 0.11
20-O-β-D-glucopyranosyl-20(S)-protopanaxatriol [Example 2],33.6,1.67 ± 0.17,,
20-O-β-D-glucopyranosyl-20(S)-protopanaxatriol [Example 4],34.9,1.64 ± 0.21,,

# Source: patent US8647610B2, “Use of melanin biosynthesis inhibitors from korean ginseng and the cosmetic composition containing thereof for skin whitening” (Amorepacific Corporation, priority 2007, dated 2014)
